Test results published in patent US20100056523A1, “INHIBITORS OF AKT ACTIVITY” (SMITHKLINE BEECHAM CORPORATION, priority 2005, published 2010).
Counter-ions that a name gives are not always drawn.

Legend:
[1] = test system: HFF (normal human foreskin fibroblast); assay: Methylene Blue Growth Inhibition Assay; format: cell-based; conditions: 72 h, HFF normal cells, 3 days incubation
Method: (§1) Tumor cell lines used in this assay were BT474 (human breast carcinoma) and LNCaP (lymph node metastasis of prostate cancer). HFF (normal human foreskin fibroblast) was also included. All cell lines were cultured in RPMI 1640 media (Invitrogen Corporation 22400-071) containing 10% Fetal Bovine Serum (FBS) at 37° C. in a humidified 5% CO2 incubator. Cells were harvested using trypsin/EDTA, counted using a hemacytometer and plated in 96-well tissue culture plates (Costar 35-3075), 100 uL per well, at the following densities: BT474 15,000 cells/well, LNCaP 5,000 cells/well and HFF 5,000 cells/well. 10 mM stocks of compounds in DMSO were serially diluted in DMSO through nine 3-fold dilutions in 96-well plates (Costar Corning 3363), and stored at −80 C. The next day, compound dilutions were thawed and 4 uL of each transferred to 662 uL RPMI 1640+100 ug/mL gentamicin, resulting in twice the final required test concentrations. 100 uL of compounds diluted in RPMI 1640 were added to all cell lines. The final concentration of DMSO in all wells, including controls, was 0.3%. Cells were incubated at 37 C, 5% CO2 for 3 days. Medium was removed by aspiration. Cell biomass was estimated by staining cells with 80 uL methylene blue (Sigma M9140, 0.5% in 50:50 ethanol:water), and incubating at room temperature for 1 hour. Stain was aspirated and the plates rinsed by immersion in water, then air-dried. Stain was released from cells by adding 100 uL of solubilizing solution (1% N-lauroyl sarcosine, sodium salt, Sigma L5125, in PBS) and incubating at room temperature for at least 30 minutes. Plates were shaken and the optical density at 620 nm was measured on a microplate reader. Percent inhibition of cell growth was calculated relative to vehicle-treated control wells. Concentration of compound that inhibits 50% of cell growth (IC50) was interpolated using non-linear regression (Levenberg-Marquadt) and the equation, y=Vmax*(1−(x̂n/K̂n+x̂n)))+Y2. [Ref: Mager, M. E. (1972) Data Analysis in Biochemistry and Biophysics. New York: Academic Press]

[2] = test system: LNCaP (lymph node metastasis of prostate cancer); assay: Methylene Blue Growth Inhibition Assay; format: cell-based; conditions: Homo sapiens, 72 h, 3 days incubation
Method: as §1

[3] = test system: BT474 (human breast carcinoma); assay: Methylene Blue Growth Inhibition Assay; format: cell-based; conditions: BT-474, 72 h, BT474, 3 days incubation
Method: as §1

[4] = Solubility in 50 mM phosphate buffer at pH 7.4; format: physicochemical; conditions: suitability for IV dosage forms

| IC50 [2] [nM] | IC50 [3] [nM] | SMILES | IC50 [1] [µM] | solubility (assessment in words) [4] |
| --- | --- | --- | --- | --- |
| 83 | 186 | CCn1c(-c2nonc2N)nc2c(C#CC(C)(C)O)ncc(OC[C@@H]3CN(C)CCS3)c21 (single isomer, unassigned; enantiomer e1) [Example 7, 4-(2-(4-amino-1,2,5-oxadiazol-3-yl)-1-ethyl-7-{[(4-methyl-2-thiomorpholinyl)methyl]oxy}-1H-imidazo[4,5-c]pyridin-4-yl)-2-methyl-3-butyn-2-ol (enantiomer E1)] | > 30 | – |
| 16 | 484 | CCn1c(-c2nonc2N)nc2c(C#CC(C)(C)O)ncc(OC[C@H]3CCCNC3)c21 [Example 1, 4-(2-(4-amino-1,2,5-oxadiazol-3-yl)-1-ethyl-7-{[(3S)-3-piperidinylmethyl]oxy}-1H-imidazo[4,5-c]pyridin-4-yl)-2-methyl-3-butyn-2-ol] | > 20 | suitable for formulation into dosage forms for IV administration |
| 4 | 6 | CCn1c(-c2nonc2N)nc2c(C#CC(C)(C)O)ncc(OC[C@@H]3CNCCS3)c21 (single isomer, unassigned; enantiomer e1) [Example 3, 4-{2-(4-amino-1,2,5-oxadiazol-3-yl)-1-ethyl-7-[(2-thiomorpholinylmethyl)oxy]-1H-imidazo[4,5-c]pyridin-4-yl}-2-methyl-3-butyn-2-ol dihydrochloride (enantiomer E1)] | > 30 | suitable for formulation into dosage forms for IV administration |
| 189 | 1000 | CCn1c(-c2nonc2N)nc2c(C#CC(C)(C)O)ncc(OC[C@H]3CNCCO3)c21 [Example 2, 4-(2-(4-amino-1,2,5-oxadiazol-3-yl)-1-ethyl-7-{[(2R)-2-morpholinylmethyl]oxy}-1H-imidazo[4,5-c]pyridin-4-yl)-2-methyl-3-butyn-2-ol dihydrochloric acid salt] | > 30 | – |
| 49 | 80 | CCn1c(-c2nonc2N)nc2c(C#CC(C)(C)O)ncc(OCC3CNCC(C)O3)c21 (stereo in doubt) [Example 9, 4-[2-(4-amino-1,2,5-oxadiazol-3-yl)-1-ethyl-7-({[(2R)-6-methyl-2-morpholinyl]methyl}oxy)-1H-imidazo[4,5-c]pyridin-4-yl]-2-methyl-3-butyn-2-ol, dihydrochloride] | 9.39 | suitable for formulation into dosage forms for IV administration |
| 272 | 665 | CCn1c(-c2nonc2N)nc2c(C#CC(C)(C)O)ncc(OC[C@@H]3CN(C)CCO3)c21 [Example 8, 4-[2-(4-amino-1,2,5-oxadiazol-3-yl)-1-ethyl-7-({[(2S)-4-methyl-2-morpholinyl]methyl}oxy)-1H-imidazo[4,5-c]pyridin-4-yl]-2-methyl-3-butyn-2-ol] | > 30 | – |
| 15 | 37 | CCn1c(-c2nonc2N)nc2c(C#CC(C)(C)O)ncc(OC[C@@H]3CNCCO3)c21 [Example 4, 4-(2-(4-amino-1,2,5-oxadiazol-3-yl)-1-ethyl-7-{[(2S)-2-morpholinylmethyl]oxy}-1H-imidazo[4,5-c]pyridin-4-yl)-2-methyl-3-butyn-2-ol] | > 25 | suitable for formulation into dosage forms for IV administration |
| 53 | 324 | CCn1c(-c2nonc2N)nc2c(C#CC(C)(C)O)ncc(OC[C@H]3CCCN(C)C3)c21 [Example 6, 4-[2-(4-amino-1,2,5-oxadiazol-3-yl)-1-ethyl-7-({[(3S)-1-methyl-3-piperidinyl]methyl}oxy)-1H-imidazo[4,5-c]pyridin-4-yl]-2-methyl-3-butyn-2-ol, dihydrochloride] | 16.8 | – |
| 459 | 1030 | CCn1c(-c2nonc2N)nc2c(C#CC(C)(C)O)ncc(OCC3CCNC3)c21 (stereo not shown) [Example 5, 4-[2-(4-amino-1,25-oxadiazol-3-yl)-1-ethyl-7-[(3-Pyrrolidinylmethyl)oxy]-1H-imidazo[4,5-c]pyridin-4-yl]-2-methyl-3-butyn-2-ol, bis-trifluoroacetic acid salt] | 20.1 | – |
